US11358957B2, “Microbiocidal oxadiazole derivatives” (SYNGENTA PARTICIPATIONS AG, priority 2017, dated 2022)

How the values were obtained:
[1] = tested on: Puccinia recondita f. Sp. Tritici; assay: Fungicidal activity against Puccinia recondita f. sp. tritici / wheat / leaf disc curative (brown rust); format: in vivo; conditions: foliar, 24 h, 200 ppm in the applied formulation, wheat leaf segments cv. Kanzler, curative (applied 1 day after inoculation), compared to untreated, read-out: disease control
Procedure: Leaf disks or leaf segments of various plant species are cut from plants grown in a greenhouse. The cut leaf disks or segments are placed in multiwell plates (24-well format) onto water agar. The leaf disks are sprayed with a test solution before (preventative) or after (curative) inoculation. Compounds to be tested are prepared as DMSO solutions (max. 10 mg/mL) which are diluted to the appropriate concentration with 0.025% Tween20 just before spraying. The inoculated leaf disks or segments are incubated under defined conditions (temperature, relative humidity, light, etc.) according to the respective test system. A single evaluation of disease level is carried out 3 to 14 days after inoculation, depending on the pathosystem. Percent disease control relative to the untreated check leaf disks or segments is then calculated. Wheat leaf segments cv. Kanzler are placed on agar in multiwell plates (24-well format). The leaf segments are then inoculated with a spore suspension of the fungus. Plates were stored in darkness at 19C and 75% relative humidity. The formulated test compound diluted in water was applied 1 day after inoculation. The leaf segments were incubated at 19° C. and 75% relative humidity under a light regime of 12 hours light/12 hours darkness in a climate cabinet and the activity of a compound was assessed as percent disease control compared to untreated when an appropriate level of disease damage appears in untreated check leaf segments (6 to 8 days after application). The following compounds at 200 ppm in the applied formulation give at least 80% disease control in this test when compared to untreated control leaf disks under the same conditions, which show extensive disease development.

[2] = tested on: Puccinia recondita f. Sp. Tritici; assay: Fungicidal activity against Puccinia recondita f. sp. tritici / wheat / leaf disc preventative (brown rust); format: in vivo; conditions: foliar, 200 ppm in the applied formulation, wheat leaf segments cv. Kanzler, preventative (inoculated 1 day after application), compared to untreated, read-out: disease control
Procedure: Leaf disks or leaf segments of various plant species are cut from plants grown in a greenhouse. The cut leaf disks or segments are placed in multiwell plates (24-well format) onto water agar. The leaf disks are sprayed with a test solution before (preventative) or after (curative) inoculation. Compounds to be tested are prepared as DMSO solutions (max. 10 mg/mL) which are diluted to the appropriate concentration with 0.025% Tween20 just before spraying. The inoculated leaf disks or segments are incubated under defined conditions (temperature, relative humidity, light, etc.) according to the respective test system. A single evaluation of disease level is carried out 3 to 14 days after inoculation, depending on the pathosystem. Percent disease control relative to the untreated check leaf disks or segments is then calculated. Wheat leaf segments cv. Kanzler were placed on agar in multiwell plates (24-well format) and sprayed with the formulated test compound diluted in water. The leaf disks were inoculated with a spore suspension of the fungus 1 day after application. The inoculated leaf segments were incubated at 19° C. and 75% relative humidity (rh) under a light regime of 12 hours light/12 hours darkness in a climate cabinet and the activity of a compound was assessed as percent disease control compared to untreated when an appropriate level of disease damage appears in untreated check leaf segments (7 to 9 days after application). The following compounds at 200 ppm in the applied formulation give at least 80% disease control in this test when compared to untreated control leaf disks under the same conditions, which show extensive disease development.

[3] = tested on: Glomerella lagenarium (Colletotrichum lagenarium); assay: Fungicidal activity against Glomerella lagenarium (Colletotrichum lagenarium) liquid culture / cucumber / preventative (anthracnose); format: cell-based; conditions: Colletotrichum orbiculare; 20 ppm in the applied formulation; liquid culture (PDB), inhibition of growth measured photometrically 3 to 4 days after application; compared to untreated; read-out: disease control
Procedure: Mycelia fragments or conidia suspensions of a fungus prepared either freshly from liquid cultures of the fungus or from cryogenic storage, are directly mixed into nutrient broth. DMSO solutions of the test compound (max. 10 mg/mL) are diluted with 0.025% Tween20 by a factor of 50 and 10 μL of this solution is pipetted into a microtiter plate (96-well format). The nutrient broth containing the fungal spores/mycelia fragments is then added to give an end concentration of the tested compound. The test plates are incubated in the dark at 24° C. and 96% relative humidity. The inhibition of fungal growth is determined photometrically after 2 to 7 days, depending on the pathosystem, and percent antifungal activity relative to the untreated check is calculated. Conidia of the fungus from cryogenic storage are directly mixed into nutrient broth (PDB—potato dextrose broth). After placing a (DMSO) solution of test compound into a microtiter plate (96-well format), the nutrient broth containing the fungal spores is added. The test plates are incubated at 24° C. and the inhibition of growth is measured photometrically 3 to 4 days after application. The following compounds at 20 ppm in the applied formulation give at least 80% disease control in this test when compared to untreated control under the same conditions, which show extensive disease development.

Compound	pest or weed control at 200 ppm [1] [%]	pest or weed control at 200 ppm [2] [%]	inhibition of growth at 20 ppm [3] [%]
CC(c1ccc(-c2noc(C(F)(F)F)n2)s1)n1cc(C(=O)NC2CCCC2)cn1 (stereo not drawn) [Compound 1.83, N-cyclopentyl-1-[1-[5-[5-(trifluoromethyl)-1,2,4-oxadiazol-3-yl]-2-thienyl]ethyl]pyrazole-4-carboxamide]	≥ 80	≥ 80	–
O=C(NC1CCCCC1)c1ncn(Cc2ccc(-c3noc(C(F)(F)F)n3)s2)n1 [Compound 1.149, N-cyclohexyl-1-[[5-[5-(trifluoromethyl)-1,2,4-oxadiazol-3-yl]-2-thienyl]methyl]-1,2,4-triazole-3-carboxamide]	–	≥ 80	≥ 80
CC(C)(C)CNC(=O)c1ccnn1Cc1ccc(-c2noc(C(F)(F)F)n2)s1 [Compound 1.156, N-(2,2-dimethylpropyl)-2-[[5-[5-(trifluoromethyl)-1,2,4-oxadiazol-3-yl]-2-thienyl]methyl]pyrazole-3-carboxamide]	–	≥ 80	≥ 80
CC1(C)CC(=O)N(Cc2cc(-c3noc(C(F)(F)F)n3)cs2)O1 [Compound 1.28, 5,5-dimethyl-2-[[4-[5-(trifluoromethyl)-1,2,4-oxadiazol-3-yl]-2-thienyl]methyl] isoxazolidin-3-one]	–	–	≥ 80
Fc1cnn(Cc2ccc(-c3noc(C(F)(F)F)n3)s2)c1 [Compound 1.12, 3-[5-[(4-fluoropyrazol-1-yl)methyl]-2-thienyl]-5-(trifluoromethyl)-1,2,4-oxadiazole]	–	≥ 80	≥ 80
CC(c1ccc(-c2noc(C(F)(F)F)n2)s1)n1cc(C(=O)NC2CCCCC2)cn1 (stereo not drawn) [Compound 1.71, N-cyclohexyl-1-[1-[5-[5-(trifluoromethyl)-1,2,4-oxadiazol-3-yl]-2-thienyl]ethyl]pyrazole-4-carboxamide]	–	≥ 80	≥ 80
Cc1cccc(=O)n1Cc1cc(-c2noc(C(F)(F)F)n2)cs1 [Compound 1.27, 6-methyl-1-[[4-[5-(trifluoromethyl)-1,2,4-oxadiazol-3-yl]-2-thienyl]methyl]pyridin-2-one]	–	–	≥ 80
CCC(C)NC(=O)c1ccnn1Cc1ccc(-c2noc(C(F)(F)F)n2)s1 (stereo not drawn) [Compound 1.155, N-sec-butyl-2-[[5-[5-(trifluoromethyl)-1,2,4-oxadiazol-3-yl]-2-thienyl]methyl]pyrazole-3-carboxamide]	–	≥ 80	≥ 80
CC(C)NC(=O)c1ccnn1Cc1ccc(-c2noc(C(F)(F)F)n2)s1 [Compound 1.157, N-isopropyl-2-[[5-[5-(trifluoromethyl)-1,2,4-oxadiazol-3-yl]-2-thienyl]methyl]pyrazole-3-carboxamide]	–	≥ 80	≥ 80
O=C(NC1CCCC1)c1ccnn1Cc1ccc(-c2noc(C(F)(F)F)n2)s1 [Compound 1.165, N-cyclopentyl-2-[[5-[5-(trifluoromethyl)-1,2,4-oxadiazol-3-yl]-2-thienyl]methyl]pyrazole-3-carboxamide]	–	≥ 80	≥ 80
FC(F)(F)c1nc(-c2ccc(Cn3nnnc3-c3ccccc3Br)s2)no1 [Compound 1.10, 3-[5-[[5-(2-bromophenyl)tetrazol-1-yl]methyl]-2-thienyl]-5-(trifluoromethyl)-1,2,4-oxadiazole]	–	≥ 80	≥ 80
O=S1(=O)CCCN1Cc1cc(-c2noc(C(F)(F)F)n2)cs1 [Compound 1.29, 2-[[4-[5-(trifluoromethyl)-1,2,4-oxadiazol-3-yl]-2-thienyl]methyl]-1,2-thiazolidine 1,1-dioxide]	–	–	≥ 80
O=C(Nc1ccccc1)c1ccnn1Cc1ccc(-c2noc(C(F)(F)F)n2)s1 [Compound 1.162, N-phenyl-2-[[5-[5-(trifluoromethyl)-1,2,4-oxadiazol-3-yl]-2-thienyl]methyl]pyrazole-3-carboxamide]	–	≥ 80	≥ 80
CC(C)(C)NC(=O)c1ccnn1Cc1ccc(-c2noc(C(F)(F)F)n2)s1 [Compound 1.167, N-tert-butyl-2-[[5-[5-(trifluoromethyl)-1,2,4-oxadiazol-3-yl]-2-thienyl]methyl]pyrazole-3-carboxamide]	–	≥ 80	≥ 80
CC1(C)CC(=O)N(Cc2ccc(-c3noc(C(F)(F)F)n3)s2)O1 [Compound 1.3, 5,5-dimethyl-2-[[5-[5-(trifluoromethyl)-1,2,4-oxadiazol-3-yl]-2-thienyl]methyl] isoxazolidin-3-one]	–	≥ 80	≥ 80
O=C(NCc1ccccc1)c1ccnn1Cc1ccc(-c2noc(C(F)(F)F)n2)s1 [Compound 1.163, N-benzyl-2-[[5-[5-(trifluoromethyl)-1,2,4-oxadiazol-3-yl]-2-thienyl]methyl]pyrazole-3-carboxamide]	–	≥ 80	≥ 80
FC(F)(F)c1nc(-c2ccc(CN3CCOCC3)s2)no1 [Compound 1.18, 4-[[5-[5-(trifluoromethyl)-1,2,4-oxadiazol-3-yl]-2-thienyl]methyl]morpholine]	–	≥ 80	≥ 80
O=C1CCCCN1Cc1cc(-c2noc(C(F)(F)F)n2)cs1 [Compound 1.31, 1-[[4-[5-(trifluoromethyl)-1,2,4-oxadiazol-3-yl]-2-thienyl]methyl]piperidin-2-one]	–	–	≥ 80
FC(F)(F)c1nc(-c2ccc(Cn3cccn3)s2)no1 [Compound 1.7, 3-[5-(pyrazol-1-ylmethyl)-2-thienyl]-5-(trifluoromethyl)-1,2,4-oxadiazole]	–	≥ 80	≥ 80
O=C(Nc1ccccc1)c1cnn(Cc2ccc(-c3noc(C(F)(F)F)n3)s2)c1 [Compound 1.115, N-phenyl-1-[[5-[5-(trifluoromethyl)-1,2,4-oxadiazol-3-yl]-2-thienyl]methyl]pyrazole-4-carboxamide]	–	≥ 80	≥ 80
FC(F)(F)c1nc(-c2ccc(CN3CCC3)s2)no1 [Compound 1.20, 3-[5-(azetidin-1-ylmethyl)-2-thienyl]-5-(trifluoromethyl)-1,2,4-oxadiazole]	–	–	≥ 80
FC(F)(F)c1nc(-c2ccc(CN3CCCC3)s2)no1 [Compound 1.15, 3-[5-(pyrrolidin-1-ylmethyl)-2-thienyl]-5-(trifluoromethyl)-1,2,4-oxadiazole]	–	–	≥ 80
O=C(NC1CCCCC1)c1ccnn1Cc1ccc(-c2noc(C(F)(F)F)n2)s1 [Compound 1.159, N-cyclohexyl-2-[[5-[5-(trifluoromethyl)-1,2,4-oxadiazol-3-yl]-2-thienyl]methyl]pyrazole-3-carboxamide]	–	≥ 80	≥ 80
Cc1cnn(Cc2ccc(-c3noc(C(F)(F)F)n3)s2)c1 [Compound 1.5, 3-[5-[(4-methylpyrazol-1-yl)methyl]-2-thienyl]-5-(trifluoromethyl)-1,2,4-oxadiazole]	–	≥ 80	≥ 80
